# From US20060034925A1, “Tumor targeting drug-loaded particles” (priority 2004, published 2006)
# Key:
# [1] = tested on: peritoneal cancer; settings: intraperitoneal administration in patients; cited from earlier work
# [2] = tested on: PANC1; assay: cytotoxicity of paclitaxel, MTT assay; assay type: cell-based; settings: Homo sapiens, PANC-1, read-out: concentration required to produce 50% cytotoxicity (IC50), 96 hour treatment, dissolved in water
# Procedure: (§1) Drug effect was measured using the microtetrazolium dye reduction (MTT) assay.
# [3] = tested on: Hs766T; assay: cytotoxicity of paclitaxel, MTT assay; assay type: cell-based; settings: Homo sapiens, read-out: concentration required to produce 50% cytotoxicity (IC50), 96 hour treatment, dissolved in water
# Procedure: as §1
# [4] = tested on: MIA-PaCa; assay: cytotoxicity of paclitaxel, MTT assay; assay type: cell-based; settings: Homo sapiens, MIA PaCa-2, read-out: concentration required to produce 50% cytotoxicity (IC50), 96 hour treatment, dissolved in water
# Procedure: as §1
# [5] = tested on: Human RT4 bladder transitional bladder cancer cells; assay: cytotoxicity in RT4 cells, sulforhodamine B assay; assay type: cell-based
# [6] = tested on: multiple human tumor cells; settings: treatment for 3 hours; cited from earlier work
# [7] = retention of PLGA microparticles in peritoneal cavity; assay type: in vivo, mice; settings: intraperitoneal administration; at 24 hours
# Excerpt: Localization and disposition of PLGA microparticles within the peritoneal cavity after intraperitoneal administration was studied using rhodamine-loaded fluorescence microparticles. The disposition was compared with that of rhodamine in solution.
smiles,measurement,setting,value
N.N.[Cl][Pt][Cl] [cisplatin],extension of survival time,[1],about 20%
CC(=O)O[C@H]1C(=O)[C@@]2(C)[C@H]([C@H](OC(=O)c3ccccc3)[C@]3(O)C[C@H](OC(=O)[C@H](O)[C@@H](NC(=O)c4ccccc4)c4ccccc4)C(C)=C1C3(C)C)[C@]1(OC(C)=O)CO[C@@H]1C[C@@H]2O [paclitaxel],IC50,[2],1.5 nM
same,IC50,[3],0.7 nM
same,IC50,[4],0.7 nM
same,IC50,"[5]; RT-4, 48 h, RT4, 48 hour treatment, immediate effect",11 ± 0.4 nM
same,IC50,"[5]; RT-4, 96 h, RT4, 96 hour treatment, immediate effect",4 ± 0.4 nM
same,IC50,"[5]; RT-4, RT4, 15 minute treatment, delayed effect measured at 96 hours",157 ± 6.6 nM
same,IC50,"[5]; RT-4, RT4, 2 hour treatment, delayed effect measured at 96 hours",33 ± 4.8 nM
same,concentration sufficient to induce apoptosis,[6],200 nM
"CCN(CC)c1ccc2c(-c3ccccc3C(=O)O)c3ccc(=[N+](CC)CC)cc-3oc2c1 [rhodamine in solution, rhodamine]",localization in the peritoneal cavity (fluorescence),[7],could no longer be observed in the peritoneal cavity
